Read-outs that look alike come from different tables or passages of the source. Ends that are not written are not given here.
Tests used:
Format in all cases: cell-based, Escherichia coli
[1] = tested on: E. coli K-12 BW25113 carrying ASKA plasmids; assay: microbe, parasite or virus in culture; settings: MS medium + 10 µg mL−1 CHL + 500 µM IPTG, 5 × 10^5 cells, 16–18 h, 37 °C
Description: Bacterial gene amplification generates extensive genetic variation that can provide drug resistance[37],[38]. As gene amplification events tend to be genetically unstable and reduce bacterial fitness, they are transient in nature. Using the ASKA library, which comprises each E. coli ORF cloned into an expression vector[40], we have conducted a global survey to evaluate whether artificially amplified genes provide resistance to any of the 14 AMPs and 11 antibiotics tested. As chloramphenicol (CHL) was used as a selection marker for the ASKA plasmid, this antibiotic was not tested in this screen. E. coli K-12 BW25113 cells were transformed with the pooled plasmids of the ASKA library, and the genetically mixed populations were exposed to increasing levels of AMP or antibiotic stresses, respectively. In all cases, the employed AMP or antibiotic dosages were above the MIC of the wild type. For each drug, we identified the MIC provided in the pooled ASKA plasmid library, and compared it to the MIC of the wild-type strain carrying the empty ASKA plasmid.
The ASKA library (a complete set of E. coli K-12 ORF archive) includes every E. coli ORF cloned into an expression vector (pCA24N)[65]. Prior to screening, the ASKA plasmid collection was pooled and transformed into E. coli K-12 BW25113 strain[66]. The plasmid pool was created by pooling an equal aliquot of cells, each carrying different members of the ASKA library, followed by plasmid miniprep. Next, the plasmid pool was electroporated into E. coli K-12 BW25113 competent cells. […] For the MICs measurements 500 000 cells were inoculated in each well which represents ~100 times coverage of each library member. […] Prior to the measurements the cell population containing the pooled overexpression library or the control strain containing the empty vector were grown in three replicates in LB medium supplemented with 20 µg/mL CHL. As the culture reached high density (i.e., OD600 > 0.8), expression of the plasmid was induced by 50 µM IPTG for 1 h. Following induction, 5 × 10^5 bacterial cells were inoculated in three replicates into each well of the 96-well plate and incubated for 16–18 h at 37 °C. Following incubation the MIC values were determined by measuring optical densities in a plate reader (Biotek Synergy).

E. coli K-12 BW25113 [2] = assay: microbe, parasite or virus in culture; settings: starting wild-type strain of the evolution experiment; broth dilution, MS medium, 5 × 10^5 cells/mL, 30 °C, 24 h, MIC = OD600 < 0.05
Description: Unless otherwise indicated, Minimal Salt (MS) medium was used in all experiments, including the laboratory evolution experiments. In line with previous, methodologically relevant laboratory evolution studies, the physical conditions (including the medium) were the same during the course of laboratory evolution and all forthcoming assays on the resulting resistant lines (e.g. MIC measurements). We previously optimized this medium for studying AMPs (1 g L^−1 (NH4)2SO4, 3 g L^−1 KH2PO4 and 7 g L^−1 K2HPO4 supplemented with 0.1 mM MgSO4, 0.54 µg mL^−1 FeCl3, 1 µg mL^−1 thiamine hydrochloride, 0.2% Casamino acids and 0.2% glucose)[19]. This medium is highly controlled and provides a reproducible environment for experimental evolution experiments. All components were obtained from Sigma-Aldrich.
MICs were determined using a standard serial broth dilution technique. Briefly, 11-step serial dilutions were prepared in 96-well microtiter plates with three replicates per strain and antimicrobial compound. Each experiment was repeated at least twice. 5 × 10^5 cells/mL were inoculated into each well, and the plates were incubated at 30 °C in case of E. coli K-12 BW25113, and its antibiotic and AMP-adapted lines, or 37 °C in case of the other bacterial species. […] Cell growth was monitored by measuring the optical density (OD600 value, Biotek Synergy 2 microplate reader was used for this purpose). […] Relative MIC was calculated as follows: MICrelative = MICevolved/MICcontrol.

E.coli K-12 BW25113 = settings: for MIC (freshly prepared AMP): plates inoculated immediately; for MIC (pre-incubated AMP): plates pre-incubated 72 hours before inoculation
Procedure: (§1) MICs were determined using a standard serial broth dilution technique. Briefly, 11-step serial dilutions were prepared in 96-well microtiter plates with three replicates per strain and antimicrobial compound. Each experiment was repeated at least twice. 5 × 10^5 cells/mL were inoculated into each well, and the plates were incubated at 30 °C in case of E. coli K-12 BW25113, and its antibiotic and AMP-adapted lines, or 37 °C in case of the other bacterial species. Plates were shaken at 300 r.p.m. during incubation for 24 and 18 h, respectively. Cell growth was monitored by measuring the optical density (OD600 value, Biotek Synergy 2 microplate reader was used for this purpose). […] Relative MIC was calculated as follows: MICrelative = MICevolved/MICcontrol.
Supplementary Table 7- Effect of incubation time on the minimum inhibitory concentration (MIC) of AMPs. We tested whether the prolonged incubation time can affect the MIC of AMPs. To test this, two sets of AMP containing MIC plates were prepared in parallel. The first set was immediately inoculated with E.coli K-12 BW25113, while the second set was pre-incubated 72 hours before inoculation with the […]
observed in the MIC between freshly prepared and pre-incubated plates. […]

E. coli K-12 BW25113 [3] = assay: Laboratory evolution of resistance, MIC fold change of adapted lines; settings: ~120 generations under increasing drug concentration
Description: Our first goal was to study resistance evolution against a set of AMPs and antibiotics. We have followed established protocols with minor modifications to evolve bacterial populations under controlled laboratory conditions[19],[20]. The applied protocol aims to maximize the level of drug resistance in the evolving populations achieved during a fixed time period. We have initiated a laboratory evolution experiment, starting with a single clone of Escherichia coli K-12 BW25113 (abbreviated as E. coli K-12 BW25113). Parallel evolving populations were exposed to increasing concentrations of one of 14 AMPs (Supplementary Table 1). Peptides were chosen based on the following criteria: diverse sources (synthetic/natural), different putative mechanisms of action, structural diversity, and clinical relevance. Another set of populations were exposed to one of 12 clinically relevant antibiotics (Supplementary Table 2), using the same protocol. Accordingly, we have propagated 10 independent populations in the presence of each AMP or antibiotic for ∼120 generations. We isolated a single, representative clone from each population, resulting in 140 AMP-adapted lines and 120 antibiotic-adapted lines. Throughout the paper, we compare the level of resistance in the evolved lines to the corresponding wild-type strain by measuring changes in the drugs’ minimum inhibitory concentrations (MIC).
The evolutionary protocol was designed to avoid population extinction and to ensure that populations with the highest level of resistance were propagated further. Starting with a subinhibitory drug concentration (Supplementary Data 8), resulting in ~50% growth inhibition, 10 parallel populations per drug were allowed to grow in Minimal Salts medium for 72 h and 300 r.p.m. E. coli K-12 BW25113 and E. coli mutD5 populations were incubated at 30 °C, while E. coli ATCC 25922, S. enterica LT2, K. pneumonia ATCC 10031, and A. baumannii ATCC 17978 were incubated at 37 °C. […] Prior to each transfer, cell growth was monitored by measuring the optical density at 600 nm (OD600 value, Biotek Synergy 2 microplate reader). Only populations with the highest drug concentration (and reaching OD600 > 0.2) were selected for further evolution. A chess-board layout was used on the plate to monitor potential cross-contamination events. […] E. coli mutD5 was adapted to TPII, also in 10 parallel evolving populations.
as §1

[4] = time allowed for bacterial growth 48 hours
[5] = time allowed for bacterial growth 24 hours
[6] = time allowed for bacterial growth 72 hours

Row | Molecule | MIC value of E. coli K-12 BW25113 carrying the empty plasmid of the ASKA library ([1]; Replicate 1) | MIC value of E. coli K-12 BW25113 carrying the pooled plasmids of the ASKA library ([1]; Replicate 1) | MIC value of E. coli K-12 BW25113 carrying the empty plasmid of the ASKA library ([1]; Replicate 2) | MIC value of E. coli K-12 BW25113 carrying the pooled plasmids of the ASKA library ([1]; Replicate 2) | MIC value of E. coli K-12 BW25113 carrying the empty plasmid of the ASKA library ([1]; Replicate 3) | MIC value of E. coli K-12 BW25113 carrying the pooled plasmids of the ASKA library ([1]; Replicate 3) | MIC (E. coli K-12 BW25113 [2]) | MIC (freshly prepared AMP) (E.coli K-12 BW25113; [4]) | MIC (pre-incubated AMP) (E.coli K-12 BW25113; [5]) | MIC (pre-incubated AMP) (E.coli K-12 BW25113; [4]) | MIC (pre-incubated AMP) (E.coli K-12 BW25113; [6]) | MIC (freshly prepared AMP) (E.coli K-12 BW25113; [5]) | MIC (freshly prepared AMP) (E.coli K-12 BW25113; [6]) | resistance in evolved lines after laboratory evolution (in words) (E. coli K-12 BW25113 [3])
1 | CC[C@H](C)[C@H](NC(=O)[C@H](CCCCN)NC(=O)[C@H](CCC(=O)O)NC(=O)[C@H](CCCCN)NC(=O)[C@H](CO)NC(=O)[C@H](CCCCN)NC(=O)[C@H](CCCNC(=N)N)NC(=O)[C@H](Cc1ccccc1)NC(=O)[C@H](Cc1ccccc1)NC(=O)[C@H](CC(=O)O)NC(=O)CNC(=O)[C@H](CC(C)C)NC(=O)[C@@H](N)CC(C)C)C(=O)NCC(=O)N[C@@H](CCCCN)C(=O)N[C@@H](CCC(=O)O)C(=O)N[C@@H](Cc1ccccc1)C(=O)N[C@@H](CCCCN)C(=O)N[C@@H](CCCNC(=N)N)C(=O)N[C@H](C(=O)N[C@H](C(=O)N[C@@H](CCC(N)=O)C(=O)N[C@@H](CCCNC(=N)N)C(=O)N[C@H](C(=O)N[C@@H](CCCCN)C(=O)N[C@@H](CC(=O)O)C(=O)N[C@@H](Cc1ccccc1)C(=O)N[C@@H](CC(C)C)C(=O)N[C@@H](CCCNC(=N)N)C(=O)N[C@@H](CC(N)=O)C(=O)N[C@@H](CC(C)C)C(=O)N[C@H](C(=O)N1CCC[C@H]1C(=O)N[C@@H](CCCNC(=N)N)C(=O)N[C@H](C(=O)N[C@@H](CCC(=O)O)C(=O)N[C@@H](CO)C(=O)O)[C@@H](C)O)C(C)C)[C@@H](C)CC)C(C)C)[C@@H](C)CC [LL37, cathelicidin antimicrobial peptide LL-37] | 14.45 µg/mL | 14.45 µg/mL | 12.04 µg/mL | 17.34 µg/mL | 14.45 µg/mL | 14.45 µg/mL | 100 µg/mL | 17.4 µg/mL | 17.4 µg/mL | 17.4 µg/mL | 17.4 µg/mL |  |  | 
2 | RFRPPIRRPPIRPPFYPPFRPPIRPPIFPPIRPPFRPPLGPFP [BAC5, Bactenecin 5] | 5.79 µg/mL | 4.82 µg/mL | 5.79 µg/mL | 5.79 µg/mL | 5.79 µg/mL | 4.82 µg/mL | 7 µg/mL | 14.5 µg/mL | 14.5 µg/mL | 14.5 µg/mL | 14.5 µg/mL | 14.5 µg/mL | 14.5 µg/mL | 
3 | TSSPPAAVVVRRRRRRRRRRRRRRRRRRR [PROA, protamine, cationic AMP purchased from Sigma-Aldrich] | 126.51 µg/mL | 126.51 µg/mL | 126.51 µg/mL | 36.15 µg/mL | 442.78 µg/mL | 442.78 µg/mL | 310 µg/mL |  |  |  |  |  |  | isolated resistant mutants
